# Measurements from the supplement of paper PMC10307832.
# Assays:
# Test in all cases: relative viability (nuclei count vs DMSO), 5 days (fraction); higher = more cells survive
# [1] = compound: C1CC(C1)(C(=O)O)C(=O)O.[NH2-].[NH2-].[Pt+2] [Carboplatin] + Nc1ncn([C@H]2C[C@H](O)[C@@H](CO)O2)c(=O)n1 [Decitabine] (partner 2 µM)
# Method in brief: (§1)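 Lung cancer cell lines in 1536-well plates got either a single drug or a fixed anchor-drug dose together with five library-drug doses (not always all listed) in √10 steps, by pin tool, on the day after seeding. Nuclei were counted after 5 days, and relative viability is the treated-to-vehicle ratio of nuclei counts. Values are medians of duplicate plates.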
# [2] = compound: NS(=O)(=O)OC[C@@H]1C[C@@H](n2ccc3c(N[C@H]4CCc5ccccc54)ncnc32)C[C@@H]1O [MLN4924] + O=C(c1cc(Cc2n[nH]c(=O)c3ccccc23)ccc1F)N1CCN(C(=O)C2CC2)CC1 [Olaparib] (partner 8 µM)
# Method in brief: as §1
# [3] = compound: CC[C@H](C)N1C=C(C2=C(C=C(C=C21)C3=CN=C(C=C3)N4CCNCC4)C(=O)NCC5=C(C=C(NC5=O)C)C)C [GSK126] + COc1cccc2cc(-c3nc([C@H]4CC[C@H](C(=O)O)CC4)n4ncnc(N)c34)[nH]c12 [OSI-027] (partner 0.5 µM)
# Method in brief: as §1
# [4] = compound: CC[C@H](C)N1C=C(C2=C(C=C(C=C21)C3=CN=C(C=C3)N4CCNCC4)C(=O)NCC5=C(C=C(NC5=O)C)C)C [GSK126] + CC(=O)c1c(C)c2cnc(Nc3ccc(N4CCNCC4)cn3)nc2n(C2CCCC2)c1=O [Palbociclib] (partner 0.5 µM)
# Method in brief: as §1
cell line,measurement,setting,value
UMC-11,relative viability,[1]; first compound 0.08 µM,0.596
same,relative viability,[1]; first compound 0.253 µM,0.626
same,relative viability,[1]; first compound 0.8 µM,0.482
same,relative viability,[1]; first compound 2.53 µM,0.576
same,relative viability,[1]; first compound 8 µM,0.418
same,relative viability,[2]; first compound 0.04 µM,0.408
same,relative viability,[2]; first compound 0.1265 µM,0.246
same,relative viability,[2]; first compound 0.4 µM,0.255
same,relative viability,[2]; first compound 1.265 µM,0.154
same,relative viability,[2]; first compound 4 µM,0.138
same,relative viability,[3]; first compound 0.08 µM,0.563
same,relative viability,[3]; first compound 0.253 µM,0.522
same,relative viability,[3]; first compound 0.8 µM,0.484
same,relative viability,[3]; first compound 2.53 µM,0.44
same,relative viability,[3]; first compound 8 µM,0.43
same,relative viability,[4]; first compound 0.08 µM,0.353
same,relative viability,[4]; first compound 0.253 µM,0.32
same,relative viability,[4]; first compound 0.8 µM,0.328
same,relative viability,[4]; first compound 2.53 µM,0.405
same,relative viability,[4]; first compound 8 µM,0.344
